Assay results as given in US12714674B2, “JAK inhibitors having a specific particle size distribution” (Elanco US Inc., priority 2020, dated 2026).

What was measured:
[1] = test system: pruritus and skin lesions associated with allergic dermatitis in dogs; assay: Four-arm, blinded, randomized, placebo-controlled study: control of pruritus and skin lesions associated with allergic dermatitis in dogs; assay type: in vivo, dog
Experimental: This study evaluated 2-(3-(4-(7H-pyrrolo[2,3-d]pyrimidin-4-yl)-1H-pyrazol-1-yl)-1-(cyclopropylsulfonyl)azetidin-3-yl)acetonitrile for control of pruritus and skin lesions associated with allergic dermatitis in dogs.
Oral tablets were prepared containing Form II 2-(3-(4-(7H-pyrrolo[2,3-d]pyrimidin-4-yl)-1H-pyrazol-1-yl)-1-(cyclopropylsulfonyl)azetidin-3-yl)acetonitrile, as follows. […] The tablet blends were pressed giving tablet cores containing 2.4 mg, 3.6 mg, 5.4 mg, and 16 mg of crystal Form II 2-(3-(4-(7H-pyrrolo[2,3-d]pyrimidin-4-yl)-1H-pyrazol-1-yl)-1-(cyclopropylsulfonyl)azetidin-3-yl)acetonitrile, as well as a placebo core. The tablet cores were coated with a mixture containing water and Opadry 20A150011 Red, thereby giving the final oral tablets for the study.
A four-arm, blinded, randomized, placebo-controlled study was conducted to assess the efficacy of daily administration of 2-(3-(4-(7H-pyrrolo[2,3-d]pyrimidin-4-yl)-1H-pyrazol-1-yl)-1-(cyclopropylsulfonyl)azetidin-3-yl)acetonitrile for control of pruritus and skin lesions associated with allergic dermatitis in dogs. Subjects were randomized to one of the following treatment arms: API-containing Tablets, 0.25-0.40 mg/kg Body Weight; API-containing Tablets, 0.40-0.60 mg/kg Body Weight; API-containing Tablets, 0.60-0.80 mg/kg Body Weight; and Placebo Tablets, 0.0 mg/kg Body Weight.
Dogs enrolled in the study received once daily treatment for approximately 28 days. Baseline data (clinical history, concomitant therapies, body weight, physical examinations and assessments of pruritus and atopic dermatitis) were collected for each dog at enrollment (Day 0). Additional health assessments, physical examinations, body weight measurements, assessments of pruritus and atopic dermatitis, and collection of blood samples for hematology, serum chemistry and pharmacokinetic (PK) analysis occurred consistent with standard testing protocols.
The primary effectiveness variable was treatment success. A treatment success was defined as a 2 unit or more reduction from baseline on the 10-unit owner-assessed pruritus Visual-Analog Scale (VAS) in at least 70% of the first 7 treatment days (i.e., in at least 5 of the first 7 treatment days). Dogs withdrawn from the study within the first 7 days of treatment due to a perceived lack of effectiveness were considered treatment failures.
Random effects were fit for site and site treatment with a variance component covariance structure and a compound symmetry covariance structure was fit for individual dogs.

[2] = Particle size distribution of micronized (jet-milled) material, laser diffraction; assay type: physicochemical
Experimental: Micronization was begun with a short “setup” run of approximately 300 grams was performed using a feed rate of 9.6 kg/hr. Venturi/mill pressures were 10 psi.
Particle size distribution method of 2-(3-(4-(7H-pyrrolo[2,3-d]pyrimidin-4-yl)-1H-pyrazol-1-yl)-1-(cyclopropylsulfonyl)azetidin-3-yl)acetonitrile.
Method: 150 to 175 mg 2-(3-(4-(7H-pyrrolo[2,3-d]pyrimidin-4-yl)-1H-pyrazol-1-yl)-1-(cyclopropylsulfonyl)azetidin-3-yl)acetonitrile sample are dispersed with 1 ml Tween20/water mixture (10/90 v/v %) to a paste in a beaker. The entire paste is then transferred to the measuring cuvette (beaker is rinsed out with water for complete sample transfer) and dispersed in 300 ml water. To homogenize the suspension in the measuring cuvette, the pump speed is set to 600 rpm. Before measurement the sample is stirred for 30 seconds. The optical concentration should be in the range of approximately 15 to 20% but the value depends strongly on the particle size distribution in the sample. If the 15 to 20% range is not reached either more sample paste must be added or the sample has to be diluted with water.
Equipment: a Helos laser diffractometer from Sympatec is used. Suspensions are measured using a Quixel cell. Dry measurement is done using the Rodos unit. Evaluation is done using the Paqxos software.

[3] = Example 50 setup run, feed rate 9.6 kg/hr, venturi/mill pressures 10 psi
[4] = PSD method of Example 51, Helos laser diffractometer, suspension in water/Tween20

In the case of `N#CCC1(n2cc(-c3ncnc4[nH]ccc34)cn2)CN(S(=O)(=O)C2CC2)C1` [2-(3-(4-(7H-pyrrolo[2,3-d]pyrimidin-4-yl)-1H-pyrazol-1-yl)-1-(cyclopropylsulfonyl)azetidin-3-yl)acetonitrile], the “primary endpoint for treatment success” value ([1]; 0.6-0.8 mg/kg once daily) is reported as “achieved the primary endpoint for treatment success”, the “Treatment Success LSMean (response rate)” value ([1]; 0.60-0.80 mg/kg once daily oral tablets containing Form II, success = 2 unit or more reduction on owner pruritus VAS in at least 5 of first 7 treatment days, generalized linear mixed model) is reported as 0.7188 and the “improvement in lesion scores” value ([1]; 0.6-0.8 mg/kg once daily, day 28) is reported as “significant improvement in lesion scores at day 28”. For the same molecule, the improvement in pruritus ([1]; 0.6-0.8 mg/kg once daily, from first dose) was “significant improvements in pruritus from first dose”.

`N#CCC1(n2cc(-c3ncnc4[nH]ccc34)cn2)CN(S(=O)(=O)C2CC2)C1` [sample “I”, 2-(3-(4-(7H-pyrrolo[2,3-d]pyrimidin-4-yl)-1H-pyrazol-1-yl)-1-(cyclopropylsulfonyl)azetidin-3-yl)acetonitrile] showed a dv10 [2, 3] of 4 µm, a dv50 [2, 3] of 20 µm and a dv90 [2, 3] of 53 µm. It also gave a dv10 [2, 4] of 4 µm, a dv50 [2, 4] of 20 µm and a dv90 [2, 4] of 51 µm.
